This is an account of results in patent US12655125B2 (SIRONAX LTD., priority 2020, dated 2026).

What is called EC50 is the midpoint of the concentration-response curve.

This test relates to HT-29 cells. Kind of test: HT29 Cells 0FBS Assay In Vitro (TNF-α/SMAC mimetic/zVAD-FMK induced necroptosis, CellTiter-Glo cell viability). In kind it is cell-based. The note with it: Homo sapiens; HT-29 cells, FBS free medium, TNF-α (10 ng/ml), SMAC mimetic (6 uM), zVAD-FMK (10 μM), 20 hours; geometric mean EC50; read-out: Cell activity (EC50) of Compounds 117-281. The essentials: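 HT-29 cells (5,000/well, seeded overnight) in serum-free McCoy's 5A were stimulated with TNF-α 10 ng/ml, SMAC mimetic 6 μM and zVAD-FMK 10 μM to induce necroptosis. Compound added as 10-point 3-fold series for 20 h at 37° C. CellTiter-Glo luminescence gives viability; EC50 is geometric mean of duplicate dose-responses.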
Take `Cc1nn(-c2cc(OC3CN(C(=O)N4N=CC[C@H]4c4cc(F)cc(F)c4)C3)c(F)cn2)c(C)c1C(=O)N[C@H]1C[C@@H](O)C1` [compound 254, 1-(4-((1-((S)-5-(3,5-difluorophenyl)-4,5-dihydro-1H-pyrazole-1-carbonyl)azetidin-3-yl)oxy)-5-fluoropyridin-2-yl)-N-((1s,3s)-3-hydroxycyclobutyl)-3,5-dimethyl-1H-pyrazole-4-carboxamide]: the EC50 was in the range of 0.1 to 100 nM.

With `Cc1nn(-c2cc(OC3CN(C(=O)N4N=CC[C@H]4c4cc(F)cc(F)c4)C3)c(F)cn2)c(C)c1C(=O)N[C@H]1C[C@H](O)C1` [compound 255, 1-(4-((1-((S)-5-(3,5-difluorophenyl)-4,5-dihydro-1H-pyrazole-1-carbonyl)azetidin-3-yl)oxy)-5-fluoropyridin-2-yl)-N-((1r,3r)-3-hydroxycyclobutyl)-3,5-dimethyl-1H-pyrazole-4-carboxamide], the EC50 lay within 0.1 to 100 nM.

In the case of `Cc1nn(-c2cc(OC3CN(C(=O)N4N=CC[C@H]4c4cc(F)cc(F)c4)C3)c(F)cn2)c(C)c1C(=O)NCCN(C)C` [compound 256, (S)-1-(4-((1-(5-(3,5-difluorophenyl)-4,5-dihydro-1H-pyrazole-1-carbonyl)azetidin-3-yl)oxy)-5-fluoropyridin-2-yl)-N-(2-(dimethylamino)ethyl)-3,5-dimethyl-1H-pyrazole-4-carboxamide], the EC50 fell in the range of 0.1 to 100 nM.

In the case of `Cc1nn(-c2cc(OC3CN(C(=O)N4N=CC[C@H]4c4cc(F)cc(F)c4)C3)c(F)cn2)c(C)c1C(=O)N[C@H]1CCOC1` [compound 257, 1-(4-((1-((S)-5-(3,5-difluorophenyl)-4,5-dihydro-1H-pyrazole-1-carbonyl)azetidin-3-yl)oxy)-5-fluoropyridin-2-yl)-3,5-dimethyl-N—((S)-tetrahydrofuran-3-yl)-1H-pyrazole-4-carboxamide], the concentration giving a half-maximal response (EC50) was in the range of 0.1 to 100 nM.

For the compound `Cc1nn(-c2cc(OC3CN(C(=O)N4N=CC[C@H]4c4cc(F)cc(F)c4)C3)c(F)cn2)c(C)c1C(=O)N[C@@H]1CCOC1` [compound 258, 1-(4-((1-((S)-5-(3,5-difluorophenyl)-4,5-dihydro-1H-pyrazole-1-carbonyl)azetidin-3-yl)oxy)-5-fluoropyridin-2-yl)-3,5-dimethyl-N—((R)-tetrahydrofuran-3-yl)-1H-pyrazole-4-carboxamide], the EC50 was in the range of 0.1 to 100 nM.

With `Cc1nn(-c2cc(OC3CN(C(=O)N4N=CC[C@H]4c4cc(F)cc(F)c4)C3)c(F)cn2)c(C)c1CCO` [compound 259, (S)-(5-(3,5-difluorophenyl)-4,5-dihydro-1H-pyrazol-1-yl)(3-((5-fluoro-2-(4-(2-hydroxyethyl)-3,5-dimethyl-1H-pyrazol-1-yl)pyridin-4-yl)oxy)azetidin-1-yl)methanone], the EC50 was 0.1 to 100 nM.

For `O=C(N1CC(Oc2cc(-c3ccn[nH]3)ncc2F)C1)N1N=CC[C@H]1c1cc(F)cc(F)c1` [compound 261, (S)-(5-(3,5-difluorophenyl)-4,5-dihydro-1H-pyrazol-1-yl)(3-((5-fluoro-2-(1H-pyrazol-5-yl)pyridin-4-yl)oxy)azetidin-1-yl)methanone], the EC50 lay within 0.1 to 100 nM.

For `Cc1c(-c2cc(OC3CN(C(=O)N4N=CC[C@H]4c4cc(F)cc(F)c4)C3)c(F)cn2)nn(C)c1C(=O)NC1COC1` [compound 262, (S)-3-(4-((1-(5-(3,5-difluorophenyl)-4,5-dihydro-1H-pyrazole-1-carbonyl)azetidin-3-yl)oxy)-5-fluoropyridin-2-yl)-1,4-dimethyl-N-(oxetan-3-yl)-1H-pyrazole-5-carboxamide], the EC50 is 0.1 to 100 nM.

Consider `Cc1c(-c2cc(OC3CN(C(=O)N4N=CC[C@H]4c4cc(F)cc(F)c4)C3)c(F)cn2)nn(C)c1C(=O)NC1CC(O)C1` (stereo partly drawn) [compound 263, (S)-3-(4-((1-(5-(3,5-difluorophenyl)-4,5-dihydro-1H-pyrazole-1-carbonyl)azetidin-3-yl)oxy)-5-fluoropyridin-2-yl)-N-(3-hydroxycyclobutyl)-1,4-dimethyl-1H-pyrazole-5-carboxamide], for which the EC50 lay in the range of 0.1 to 100 nM.

As for `Cc1c(-c2cc(OC3CN(C(=O)N4N=CC[C@H]4c4cc(F)cc(F)c4)C3)c(F)cn2)nn(C)c1C(=O)NC1CCC1` [compound 264, (S)—N-cyclobutyl-3-(4-((1-(5-(3,5-difluorophenyl)-4,5-dihydro-1H-pyrazole-1-carbonyl)azetidin-3-yl)oxy)-5-fluoropyridin-2-yl)-1,4-dimethyl-1H-pyrazole-5-carboxamide], the EC50 fell in the range of 0.1 to 100 nM.

`Cc1c(-c2cc(OC3CN(C(=O)N4N=CC[C@H]4c4cc(F)cc(F)c4)C3)c(F)cn2)nn(C)c1C(=O)NCCO` [compound 265, (S)-3-(4-((1-(5-(3,5-difluorophenyl)-4,5-dihydro-1H-pyrazole-1-carbonyl)azetidin-3-yl)oxy)-5-fluoropyridin-2-yl)-N-(2-hydroxyethyl)-1,4-dimethyl-1H-pyrazole-5-carboxamide]: the EC50 is 0.1 to 100 nM.

With `Cc1c(-c2cc(OC3CN(C(=O)N4N=CC[C@H]4c4cc(F)cc(F)c4)C3)c(F)cn2)nn(C)c1C1=NCCN1` [compound 266, (S)-(5-(3,5-difluorophenyl)-4,5-dihydro-1H-pyrazol-1-yl)(3-((2-(5-(4,5-dihydro-1H-imidazol-2-yl)-1,4-dimethyl-1H-pyrazol-3-yl)-5-fluoropyridin-4-yl)oxy)azetidin-1-yl)methanone], the EC50 is 0.1 to 100 nM.

Regarding `Cc1c(-c2cc(OC3CN(C(=O)N4N=CC[C@H]4c4cc(F)cc(F)c4)C3)c(F)cn2)nn(C)c1C1=NCCN1C` [compound 267, (S)-(5-(3,5-difluorophenyl)-4,5-dihydro-1H-pyrazol-1-yl)(3-((2-(1,4-dimethyl-5-(1-methyl-4,5-dihydro-1H-imidazol-2-yl)-1H-pyrazol-3-yl)-5-fluoropyridin-4-yl)oxy)azetidin-1-yl)methanone], the EC50 fell in the range of 100 to 1000 nM.

Consider `Cc1noc(C)c1-c1cc(OC2CN(C(=O)N3N=CC[C@H]3c3cc(F)cc(F)c3)C2)c(F)cn1` [compound 268, (S)-(5-(3,5-difluorophenyl)-4,5-dihydro-1H-pyrazol-1-yl)(3-((2-(3,5-dimethylisoxazol-4-yl)-5-fluoropyridin-4-yl)oxy)azetidin-1-yl)methanone], for which the EC50 lay within 0.1 to 100 nM.

`Cc1nn(-c2cc(OC3CN(C(=O)N4N=CC[C@H]4c4cc(F)cc(F)c4)C3)c(F)cn2)c(C)c1CN(C)C` [compound 269, (S)-(5-(3,5-difluorophenyl)-4,5-dihydro-1H-pyrazol-1-yl)(3-((2-(4-((dimethylamino)methyl)-3,5-dimethyl-1H-pyrazol-1-yl)-5-fluoropyridin-4-yl)oxy)azetidin-1-yl)methanone]: the EC50 lay within 0.1 to 100 nM.

As to `Cc1nn(-c2cc(OC3CN(C(=O)N4N=CC[C@H]4c4cc(F)cc(F)c4)C3)c(F)cn2)c(C)c1N1CCCC1=O` [compound 270, (S)-1-(1-(4-((1-(5-(3,5-difluorophenyl)-4,5-dihydro-1H-pyrazole-1-carbonyl)azetidin-3-yl)oxy)-5-fluoropyridin-2-yl)-3,5-dimethyl-1H-pyrazol-4-yl)pyrrolidin-2-one], the EC50 was 0.1 to 100 nM.

As to `Cc1nn(-c2cc(OC3CN(C(=O)N4N=CC[C@H]4c4cc(F)cc(F)c4)C3)c(F)cn2)c(C)c1CC#N` [compound 271, (S)-2-(1-(4-((1-(5-(3,5-difluorophenyl)-4,5-dihydro-1H-pyrazole-1-carbonyl)azetidin-3-yl)oxy)-5-fluoropyridin-2-yl)-3,5-dimethyl-1H-pyrazol-4-yl)acetonitrile], the EC50 was 0.1 to 100 nM.
